The values that follow come from patent publication US7094807B2, “Substituted aryl thioureas and related compounds; inhibitors of viral replication” (Achillion Pharmaceuticals, Inc., priority 2002, dated 2006).

pEC50: −log10 of the molar value. Where two headings read alike, the source gives them in different places.

The subject of the test is HCV replicon. Briefly: HCV replicon assay (NPT ELISA in HCV replicon-containing cells). The class given is cell-based. The following applies: Hepatitis C virus, 72 h. As for the experimental part:
The compounds claimed herein were tested for the ability to inhibit viral replication of the Hepatitis C replicon in cultured cells in which the HCV replicon construct has been incorporated. The HCV replicon system was described by Bartenschlager, et. al (Science, 285, pp. 110-113 (1999)). The replicon system is predictive of in vivo anti-HCV activity; compounds that are active in humans uniformly evidence activity in the replicon assay.
In this assay HCV replicon containing cells are treated with different concentrations of the test compound to ascertain the ability of the test compound to suppress replication of the HCV replicon. As a positive control, HCV replicon-containing cells are treated with different concentrations of interferon alpha, a known inhibitor of HCV replication. The replicon assay system includes Neomycin Phosphotransferase (NPT) as a component of the replicon itself in order to detect the transcription of replicon gene products in the host cell. Cells in which the HCV replicon is actively replicating have high levels of NPT; the level of NPT is proportional to HCV replication. […] The NPT level of each sample is measured using a captured ELISA.
A protocol for testing compounds for the ability to inhibit viral replication of the Hepatitis C replicon cultured cells in which the replicon construct has been incorporated, follows.
The HCV replicon contains, 5-′3′, the HCV-IRES, the neomycin phosphotransferase (neo) gene, the IRES of encephalomyocarditis virus, which directs translation of HCV sequences NS3 to NS5B, and the 3′-NTR. The sequence of the HCV replicon has been deposited in GenBank (Accession no. AJ242652).
The replicon is transfected into Huh-7 cells using standard methods such as electroporation.
The equipment and materials include, but are not limited to, Huh-7 HCV replicon-containing cells, maintenance media (DMEM (Dulbecco's modified Eagle media) supplemented with 10% FBS, L-glutamine, non-essential amino acids, penicillin (100 units/ml), streptomycin (100 micrograms/ml), and 500 micrograms/ml of Geneticin G418), screening media (DMEM supplemented with 10% FBS, L-glutamine, and non-essential amino acid, penicillin (100 units/ml) and streptomycin (100 micrograms/ml)), 96 well tissue culture plates (flat bottom), 96 well plates (U bottom for drug dilution), Interferon alpha for positive control, fixation reagent (such as methanol: acetone), primary antibody (rabbit anti-NPTII), secondary antibody: Eu-N1 l, and enhancement solution.
HCV replicon-containing cells are rinsed with once PBS once; 2 mls of trypsin is added. Cells are incubated at 37° C. in a 5% CO2 incubator for 3-5 minutes. 10 mls of complete medium is added to stop the reaction. Cells are blown gently, put into a 15 ml tube, and spun at 1200 rpm for four minutes. The trypsin/medium solution is removed and 5 mls of medium (500 ml DMEM (high glucose)) from BRL catalog #12430-054; 50 mls 10% FBS, […] (50 mg/ml, BRL 10131-035), 5 ml MEM non-essential amino acid (100×BRL #11140-050) and 5 ml pen-strep (BRL #15140-148) is added. The cells and media are mixed carefully
Cells are plated with screening medium (500 ml DMEM (BRL #21063-029), 50 ml FBS (BRL #10082-147) and 5 ml MEM non-essential amino acid (BRL #11140-050) at 6000-7500 cells/100 μl/well of 96 well plate (6-7.5×10^5 cells/10 ml/plate). Plates are placed into 37° C. 5% CO2 incubator overnight.
The following morning, drugs (test compounds or interferon alpha) are diluted in 96 well U bottom plates with media or DMSO/media, depending on the final concentration chosen for screening. Generally for 6 concentrations of each test compounds ranging from 10 micromolar to 0.03 micromolar are applied. 100 μl of the test compound dilution is placed in wells of the 96 well plate containing the HCV replicon cells. Media without drug is added to some wells as a negative controls. DMSO is known to affect cell growth. […]

Setting [1] is: HCV replicon-containing Huh-7 cells, three days incubation, read-out: EC50 for inhibition of replication of the HCV replicon.
[2] abbreviates: read-out: EC50 for inhibition of viral RNA replicon replication in Huh9-13 cells.

As a reminder, the pEC50 is the EC50 on a negative log10 scale, so that one unit is a factor of ten. `CCCCOC(=O)c1ccc(NC(=S)NC(=O)c2ccc3ccccc3c2)cc1` [Compound 1, 4-[3-(Naphthalene-2-carbonyl)-thioureido]-benzoic Acid Butyl Ester]: the pEC50 under setting [1] was above 4.52.
Still for that read-out and setting: for `CCCCOC(=O)c1ccc(NC(=S)N(C)C(=O)COc2ccccc2)cc1` [Compound 2, 4-[3-Methyl-3-(2-Phenoxy-acetyl)-thioureido]benzoic Acid Butyl Ester] the value was above 4.52; for `O=C(COc1ccc(C2CC2)cc1)NC(=S)NCc1cccs1` [Compound 3, 1-(2-(4-Cylcopropylphenoxy)acetyl)-3-((thiophen-2-yl)methyl)thiourea], above 4.52.
In the case of `CCCCOC(=O)c1ccc(NC(=S)N(C)C(=O)COc2ccccc2C)cc1` [Compound 4, 4-[3-Methyl-3-(2-o-tolyloxy-acetyl)-thioureido]-benzoic acid butyl ester], the negative logarithm of the EC50 (pEC50) reads like this: under setting [2], 5.37; under setting [1], above 4.52.
As for `CCCCOC(=O)c1ccc(NC(=S)N(C)C(=O)COc2cccc(C)c2)cc1` [Compound 5, 4-[3-Methyl-3-(2-m-tolyloxy-acetyl)-thioureido]-benzoic acid butyl ester], the pEC50 under setting [1] was above 4.52.
Still for that read-out and setting: for `CCCCOC(=O)c1ccc(NC(=S)NC(=O)COc2ccc(C)cc2)cc1` [Compound 6, 4-[3-(2-p-tolyloxy-acetyl)-thioureido]-benzoic acid butyl ester] the value was above 4.52.
As for `CCCCOC(=O)c1ccc(NC(=S)NC(=O)COc2ccc(F)cc2)cc1` [Compound 7, 4-{3-[2-(4-Fluoro-phenoxy)-acetyl]-thioureido}-benzoic acid butyl ester], the pEC50 reads like this: under setting [2], 5.47; under setting [1], above 4.52.
Take `CCCCOC(=O)c1ccc(NC(=S)NC(=O)COc2ccc(OC)cc2)cc1` [Compound 8, 4-{3-[2-(4-Methoxy-phenoxy)-acetyl]-thioureido}-benzoic acid butyl ester]: under setting [1], the negative-log EC50 (pEC50) was above 4.52.
Same read-out and setting: for `O=C(COc1ccccc1)NC(=S)Nc1ccc(F)cc1` [Compound 9, 1-(4-Fluoro-phenyl)-3-(2-phenoxy-acetyl)-thiourea] the value was above 4.52.
Same read-out and setting: for `COc1cccc(NC(=S)NC(=O)COc2ccccc2)c1` [Compound 10, 1-(3-Methoxy-phenyl)-3-(2-phenoxy-acetyl)-thiourea] the value was above 4.52.
On the same count and under the same terms, to `COc1ccc(NC(=S)NC(=O)COc2ccccc2)cc1` [Compound 11, 1-(4-Methoxy-phenyl)-3-(2-phenoxy-acetyl)-thiourea] belongs above 4.52.
Regarding `O=C(COc1ccccc1)NC(=S)Nc1ccc(Oc2ccccc2)cc1` [Compound 12, 1-(2-Phenoxyacetyl)-3-(4-phenoxyphenyl)thiourea], the pEC50 under setting [1] was above 4.52.
In the case of `O=C(COc1ccccc1)NC(=S)Nc1ccc(OCc2ccccc2)cc1` [Compound 13, 1-(4-Benzyloxy-phenyl)-3-(2-phenoxy-acetyl)-thiourea], under setting [1], the negative-log EC50 (pEC50) was above 4.52.
On the same count and under the same terms, for `O=C(COc1ccccc1)NC(=S)Nc1ccc(-c2ccccc2)cc1` [Compound 14, 1-Biphenyl-4-yl-3-(2-phenoxy-acetyl)-thiourea] the value was above 4.52; for `O=C(COc1ccccc1)NC(=S)Nc1ccc(C2CCCCC2)cc1` [Compound 15, 1-(4-Cyclohexyl-phenyl)-3-(2-phenoxy-acetyl)-thiourea], above 4.52; for `O=C(COc1ccccc1)NC(=S)Nc1ccc(N2CCCCC2)cc1` [Compound 16, 1-[(4-piperidine-1-yl)-phenyl]-3-(2-phenoxy-acetyl)-thiourea], above 4.52.
Consider `CCN(CC)c1ccc(NC(=S)NC(=O)COc2ccccc2)cc1` [Compound 17, 1-(4-(Diethylamino)-phenyl)-3-(2-phenoxy-acetyl)-thiourea], for which, under setting [1], the pEC50 was above 4.52.
Same read-out and setting: for `O=C(COc1ccccc1)NC(=S)Nc1cccc(Oc2ccccc2)c1` [Compound 18, 1-(2-phenoxy-acetyl)-3-(3-phenoxy-phenyl)-thiourea] the value was above 4.52; for `O=C(COc1ccccc1)NC(=S)Nc1cccc(OCc2ccccc2)c1` [Compound 19, 1-(3-Benzyloxy-phenyl)-3-(2-phenoxy-acetyl)-thiourea], above 4.52; for `CC(=O)c1ccccc1NC(=S)NC(=O)COc1ccccc1` [Compound 20, 1-(2-Acetyl-phenyl)-3-(2-phenoxy-acetyl)-thiourea], above 4.52.
The same measure, in the same setting: for `O=C(COc1ccccc1)NC(=S)Nc1ccc2cc(F)ccc2c1` [Compound 21, 1-(6-Fluoro-naphthalen-2-yl)-3-(2-phenoxy-acetyl)-thiourea] the value was above 4.52; for `O=C(COc1ccccc1)NC(=S)Nc1ccc2ncsc2c1` [Compound 22, 1-Benzothiazol-6-yl-3-(2-phenoxy-acetyl)-thiourea], above 4.52; for `O=C(COc1ccccc1)NC(=S)Nc1cnc2ccccc2c1` [Compound 23, 1-(2-Phenoxy-acetyl)-3-quinolin-3-yl-thiourea], above 4.52.
For the compound `N#Cc1ccc(NC(=S)NC(=O)COc2ccc(Cl)c(Cl)c2)cc1` [Compound 24, 1-(2-(3,4-dichloro-phenoxy)acetyl)-3-(4-cyanophenyl)thiourea], the negative logarithm of the EC50 (pEC50) is, setting by setting: under setting [2], 4.92; under setting [1], above 4.52.
`O=C(NC(=S)Nc1cccc(Oc2ccccc2)c1)c1ccccc1O` [Compound 25, 1-(2-Hydroxy-benzoyl)-3-(3-phenoxy-phenyl)-thiourea]: the negative-log EC50 (pEC50) under setting [1] is above 4.52.
The same measure, in the same setting: to `O=C(NC(=S)Nc1cccc(Oc2ccccc2)c1)c1cc2ccccc2o1` [Compound 26, 1-(Benzofuran-2-carbonyl)-3-(3-phenoxy-phenyl)-thiourea] belongs above 4.52; to `O=C(NC(=S)Nc1cccc(OCc2ccccc2)c1)c1cc2ccccc2o1` [Compound 27, 1-(Benzofuran-2-carbonyl)-3-(3-benzyloxy-phenyl)-thiourea], above 4.52.
On the same count and under the same terms, for `O=C(NC(=S)Nc1cccc(OCc2ccccc2)c1)c1cc2ccccc2s1` [Compound 28, 1-(Benzo[b]thiophene-2-carbonyl)-3-(3-benzyloxy-phenyl)-thiourea] the value was above 4.52; for `O=C(NC(=S)Nc1cccc(OCc2ccccc2)c1)c1cc2cc(F)ccc2[nH]1` [Compound 29, 1-(3-Benzyloxy-phenyl)-3-(5-fluoro-1H-indole-2-carbonyl)-thiourea], above 4.52; for `O=C(NC(=S)Nc1ccc(Oc2ccccc2)cc1)c1cc2cc(F)ccc2o1` [Compound 30, 1-(5-Fluoro-benzofuran-2-carbonyl)-3-(4-phenoxy-phenyl)-thiourea], above 4.52.
As to `Fc1ccc2oc(C(=S)NC(=S)Nc3ccc(Oc4ccccc4)cc3)cc2c1` [Compound 31, 1-(5-Fluoro-benzofuran-2-carbothioyl)-3-(4-phenoxy-phenyl)-thiourea], the negative-log EC50 (pEC50) under setting [1] is above 4.52.
Consider `O=C(CCc1ccc(F)cc1)NC(=S)Nc1ccc(Oc2ccccc2)cc1` [Compound 32, 1-[3-(4-Fluoro-phenyl)-proprionyl]-3-(4-phenoxy-phenyl)-thiourea], for which, under setting [1], the pEC50 is above 4.52.
Still for that read-out and setting: for `O=C(COc1ccccc1)NC(=S)NC1CCC(Oc2ccccc2)CC1` (stereo not shown) [Compound 33, 1-(2-Phenoxy-acetyl)-3-(4-phenoxy-cyclohexyl)-thiourea] the value was above 4.52; for `O=C(COc1ccccc1)NC(=S)NCCc1ccccc1` [Compound 34, 1-Phenethyl-3-(2-phenoxy-acetyl)-thiourea], above 4.52.
